According to patent US9322066B2, “Predictors for cancer treatment” (priority 2011, dated 2016):

Experiments:
[1] = system: relapsed or refractory, rituximab-naive or -sensitive follicular B-cell NHL; assay: Overall survival (OS), Vc-R vs rituximab study, by biomarker; assay type: in vivo, human; parameters: OS Median: unit not given here
Text: (§1) Non-Hodgkin lymphoma (NHL) encompasses several unique malignant lymphoid disease entities that vary in clinical behavior, morphologic appearance, immunologic, and molecular phenotype. […] A randomized, open-label, active-controlled, multicenter, multinational, prospective study to compare the efficacy and safety of the combination of bortezomib and rituximab (Vc-R) to single-agent rituximab in subjects who have relapsed or refractory, rituximab-naive or -sensitive follicular B-cell NHL was performed.
(§2) Subjects were centrally randomized to Treatment Groups A (Vc-R) or B (rituximab) in a 1:1 ratio taking into account the following stratification factors: • Follicular Lymphoma International Prognostic Index (FLIPI) score (low [0 or 1 factor], intermediate [2 factors], high [≧3 factors]); • Prior rituximab therapy (yes, no); • Time since last dose of anti-lymphoma therapy (≦1 year, >1 year); • Region (United States/Canada, European Union, Rest of World).
The following clinical endpoints were included in the analysis within each treatment group and an overall comparison was made with the biomarker-related endpoints: Progression-free survival, defined as the interval between the date of randomization and the date of progressive disease (PD) or death, whichever is first reported in the ITT population; overall survival; overall response rate (complete response [CR]+CR unconfirmed [CRu]+partial response [PR]); overall CR rate (CR+CRu); duration of response; time to next anti-lymphoma therapy; and treatment free interval.
Overall Survival was measured from the date of randomization to the date of the subject's death. If the subject was alive or the vital status was unknown, it was censored at the date that the subject was last known to be alive. Similar to PFS and TTP, the Cox proportional hazard model was used to evaluate the association between biomarker endpoints and OS. Kaplan-Meier survival curves were presented. Analyses were done for the population overall and by treatment group, and each of these analyses was stratified by the covariates used for PFS.

[2] = system: relapsed or refractory, rituximab-naive or -sensitive follicular B-cell NHL; assay: Overall response rate (CR+CRu+PR), Vc-R vs rituximab study, by biomarker; assay type: in vivo, human; settings: Biomarker positive (PSMB1 P11A heterozygote and CD68 Low)
Text: as §1
as §2, with “World). […]” for “World).”
Comparison of the response rates between the treatment groups was conducted using the Fishers Exact Test. Duration of response, time to response, and time to clinical relapse were analyzed descriptively, where appropriate, and the biomarker subset was compared (if appropriate, determined as per the initial analysis) to the overall clinical cohort, by treatment group and overall. […]

[3] = 20S % POSITIVE CYTOPLASMIC SIGNAL: 95-100, 2 Prior Lines of Therapy
[4] = 20S % POSITIVE CYTOPLASMIC SIGNAL: 95-100, Ann Arbor Stage IV
[5] = BCL2/P59L: MD, Ann Arbor Stage IV
[6] = BCL2/P59L: MD, High FLIPI Score
[7] = BCL2/P59L: MD, High Tumor Burden
[8] = BCL2/P59L: MD, No Prior Rituximab Therapy
[9] = CD68 OVERALL POSITIVE: 26-50, 2 Prior Lines of Therapy
[10] = CD68 POSITIVE PERIFOLLICULAR: 26-50, 2 Prior Lines of Therapy
[11] = NOTCH/P2513L: MD, >65 years old
[12] = PSMB5/R24C: C/T, Ann Arbor Stage IV
[13] = PSMB5/R24C: C/T, Intermediate FLIPI Score

## rituximab
[1]; 20S % POSITIVE CYTOPLASMIC SIGNAL: 0-20, 2 Prior Lines of Therapy
  OS Evt/N: 1/10
[1]; 20S % POSITIVE CYTOPLASMIC SIGNAL: 0-20, Ann Arbor Stage IV
  OS Evt/N: 1/15
[1]; [3]
  OS Evt/N: 14/35
  OS Median: 1205
[1]; [4]
  OS Evt/N: 25/56
  OS Median: 1205
[1]; 20S INTENSITY CYTOPLASMIC SIGNAL >=3+ + P65 % POSITIVE CYTOPLASMIC SIGNAL <=90%, Selected (biomarker positive)
  Median OS (Vc − R vs R): 717 days
[1]; 20S INTENSITY CYTOPLASMIC SIGNAL: ≦2+, Intermediate FLIPI Score
  OS Evt/N: 2/48
[1]; 20S INTENSITY CYTOPLASMIC SIGNAL: ≧3+, Male
  OS Evt/N: 10/27
[1]; AGEGRP >65 + CD68 POSITIVE FOLLICULAR >50, Selected (biomarker positive)
  Median OS (Vc − R vs R): 971 days
[1]; [5]
  OS Evt/N: 5/5
  OS Median: 174
[1]; BCL2/P59L: MD, Female
  OS Evt/N: 6/8
  OS Median: 536
[1]; [6]
  OS Evt/N: 6/6
  OS Median: 282
[1]; [7]
  OS Evt/N: 5/6
  OS Median: 282
[1]; [8]
  OS Evt/N: 5/5
  OS Median: 174
[1]; BCL2/P59L: MD, Rest of World
  OS Evt/N: 4/5
  OS Median: 174
[1]; BCL2/R106H: MD, Male
  OS Evt/N: 8/10
  OS Median: 318
[1]; [9]
  OS Evt/N: 13/26
  OS Median: 1205
[1]; CD68 OVERALL POSITIVE: 26-50, No High Tumor Burden
  OS Evt/N: 14/54
[1]; CD68 OVERALL POSITIVE: 51-75, Ann Arbor Stage III
  OS Evt/N: 2/21
[1]; CD68 POSITIVE FOLLICULAR: 0-25, No Prior Rituximab Therapy
  OS Evt/N: 11/36
[1]; CD68 POSITIVE FOLLICULAR: 0-25, ≦65 years old
  OS Evt/N: 14/46
[1]; [10]
  OS Evt/N: 7/16
  OS Median: 1205
[1]; CD68 POSITIVE PERIFOLLICULAR: 26-50, Male
  OS Evt/N: 11/30
[1]; CD68 POSITIVE PERIFOLLICULAR: 26-50, No High Tumor Burden
  OS Evt/N: 10/41
[1]; FLIPI High + CD68 POSITIVE FOLLICULAR 0-50, Selected
  Median OS (Vc − R vs R): 1263 days
[1]; FLIPI High + P27 % NUCLEI POSITIVE 0-70, Selected
  Median OS (Vc − R vs R): 1111 days
[1]; FLIPI High + P27 SIGNAL INTENSITY >=2+, Selected
  Median OS (Vc − R vs R): 1263 days
[1]; [11]
  OS Evt/N: 8/13
  OS Median: 795
[1]; NOTCH/P2513L: MD, No High Tumor Burden
  OS Evt/N: 7/26
[1]; NOTCH/Q2460X: MD, Male
  OS Evt/N: 3/3
  OS Median: 595
[1]; NOTCH/X28DEL: MND, 2 Prior Lines of Therapy
  OS Evt/N: 20/56
[1]; NOTCH/X28DEL: MND, Male
  OS Evt/N: 26/75
[1]; P27 % NUCLEI POSITIVE: 0-20, No High Tumor Burden
  OS Evt/N: 3/29
[1]; P27 % NUCLEI POSITIVE: 60-70, Male
  OS Evt/N: 4/12
[1]; P65 % POSITIVE CYTOPLASMIC SIGNAL: >90%, 2 Prior Lines of Therapy
  OS Evt/N: 19/52
[1]; P65 INTENSITY CYTOPLASMIC SIGNAL: ≦1+, Intermediate FLIPI Score
  OS Evt/N: 1/17
[1]; P65 INTENSITY CYTOPLASMIC SIGNAL: ≧2+, 2 Prior Lines of Therapy
  OS Evt/N: 19/55
[1]; [12]
  OS Evt/N: 9/15
  OS Median: 717
[1]; [13]
  OS Evt/N: 4/10
  OS Median: 971
[1]; PSMB9/R60H: A/A, 3 Prior Lines of Therapy
  OS Evt/N: 1/6
[1]; SEX MALE + 20S % NUCLEAR STAINING 30-90, Selected
  Median OS (Vc-R vs R): 1263 days
[1]; Selected: FLIPI High and P65 % POSITIVE CYTOPLASMIC SIGNAL >90%
  Median OS (Vc-R vs R): 1263 days
[2]
  overall response rate: 47.5%
